The target of test [1] is Tyrosine-protein kinase JAK2 (Homo sapiens, UniProt O60674). The test is described as follows: Selectivity interaction (KinomeScan (DiscoverX)) EUB0001079a JAK2. The note with it: at 1 µM.
In test [2] the target is Tyrosine-protein kinase ABL2 (Homo sapiens, UniProt P42684). The test is described as follows: Selectivity interaction (KinomeScan (DiscoverX)) EUB0000092b ABL2. As to conditions: at 10 µM.
Test [3] addresses Wee1-like protein kinase 2 (Homo sapiens) (UniProt P0C1S8). The test is described as follows: Selectivity interaction (KinomeScan (DiscoverX)) EUB0000092b WEE2. The note with it: at 10 µM.
Test [4] deals with Protein kinase C delta type (Homo sapiens) (UniProt Q05655). The test is described as follows: Selectivity interaction (Kinase panel (Z-LYTE Assay)) EUB0001632a PRKCD. As to conditions: at 10 µM.
Sequence of Protein kinase C delta type (Homo sapiens) (Q05655 whole entry, looked up): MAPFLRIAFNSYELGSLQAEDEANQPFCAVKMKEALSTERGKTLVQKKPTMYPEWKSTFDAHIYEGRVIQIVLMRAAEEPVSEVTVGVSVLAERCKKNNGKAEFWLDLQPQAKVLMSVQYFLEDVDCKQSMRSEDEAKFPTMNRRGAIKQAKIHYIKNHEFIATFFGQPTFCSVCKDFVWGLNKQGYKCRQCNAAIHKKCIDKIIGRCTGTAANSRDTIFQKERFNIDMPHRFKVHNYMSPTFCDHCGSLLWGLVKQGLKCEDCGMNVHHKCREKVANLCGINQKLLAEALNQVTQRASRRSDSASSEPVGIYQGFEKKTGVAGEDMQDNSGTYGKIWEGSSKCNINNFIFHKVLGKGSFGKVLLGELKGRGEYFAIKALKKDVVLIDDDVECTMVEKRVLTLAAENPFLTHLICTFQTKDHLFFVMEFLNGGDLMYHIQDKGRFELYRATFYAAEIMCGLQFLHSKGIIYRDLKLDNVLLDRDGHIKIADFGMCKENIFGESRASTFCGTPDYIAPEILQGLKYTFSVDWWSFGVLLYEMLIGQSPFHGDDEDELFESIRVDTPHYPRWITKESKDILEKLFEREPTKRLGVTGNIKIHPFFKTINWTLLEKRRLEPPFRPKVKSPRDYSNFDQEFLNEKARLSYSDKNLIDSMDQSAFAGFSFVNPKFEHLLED
Test [5] addresses T1, Serine/threonine-protein kinase PLK4 (Homo sapiens) (UniProt O00444).
T1 sequence (whole entry): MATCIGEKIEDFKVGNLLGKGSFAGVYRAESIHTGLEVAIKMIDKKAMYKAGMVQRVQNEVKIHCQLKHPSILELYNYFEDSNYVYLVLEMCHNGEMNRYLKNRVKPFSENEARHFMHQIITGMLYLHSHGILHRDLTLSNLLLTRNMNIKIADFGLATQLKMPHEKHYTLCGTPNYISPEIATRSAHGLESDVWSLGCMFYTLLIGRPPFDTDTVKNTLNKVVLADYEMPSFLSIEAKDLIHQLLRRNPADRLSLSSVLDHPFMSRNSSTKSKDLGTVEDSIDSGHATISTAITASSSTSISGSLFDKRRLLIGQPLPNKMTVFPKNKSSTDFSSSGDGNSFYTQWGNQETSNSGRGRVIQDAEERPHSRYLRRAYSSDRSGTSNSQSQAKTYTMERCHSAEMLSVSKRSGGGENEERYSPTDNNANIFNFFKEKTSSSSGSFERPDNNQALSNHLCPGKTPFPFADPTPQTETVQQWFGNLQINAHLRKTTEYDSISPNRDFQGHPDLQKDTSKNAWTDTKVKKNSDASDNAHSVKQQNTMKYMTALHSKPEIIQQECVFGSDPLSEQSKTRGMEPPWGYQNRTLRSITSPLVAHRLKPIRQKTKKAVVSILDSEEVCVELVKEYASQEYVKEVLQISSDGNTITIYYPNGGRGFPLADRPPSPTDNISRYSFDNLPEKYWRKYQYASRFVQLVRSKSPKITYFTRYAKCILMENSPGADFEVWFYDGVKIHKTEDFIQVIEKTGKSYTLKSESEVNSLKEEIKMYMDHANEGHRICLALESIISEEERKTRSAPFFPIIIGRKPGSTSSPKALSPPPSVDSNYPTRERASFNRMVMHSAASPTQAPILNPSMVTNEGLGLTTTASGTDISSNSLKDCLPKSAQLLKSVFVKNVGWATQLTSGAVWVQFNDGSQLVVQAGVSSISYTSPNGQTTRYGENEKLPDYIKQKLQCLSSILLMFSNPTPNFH
The test is described as follows: Selectivity interaction (KinomeScan (DiscoverX)) EUB0000607a PLK4. The note with it: at 10 µM.

Test [6] concerns the target T2, Tyrosine-protein kinase receptor TYRO3 (Homo sapiens) (UniProt Q06418).
T2 sequence (whole entry): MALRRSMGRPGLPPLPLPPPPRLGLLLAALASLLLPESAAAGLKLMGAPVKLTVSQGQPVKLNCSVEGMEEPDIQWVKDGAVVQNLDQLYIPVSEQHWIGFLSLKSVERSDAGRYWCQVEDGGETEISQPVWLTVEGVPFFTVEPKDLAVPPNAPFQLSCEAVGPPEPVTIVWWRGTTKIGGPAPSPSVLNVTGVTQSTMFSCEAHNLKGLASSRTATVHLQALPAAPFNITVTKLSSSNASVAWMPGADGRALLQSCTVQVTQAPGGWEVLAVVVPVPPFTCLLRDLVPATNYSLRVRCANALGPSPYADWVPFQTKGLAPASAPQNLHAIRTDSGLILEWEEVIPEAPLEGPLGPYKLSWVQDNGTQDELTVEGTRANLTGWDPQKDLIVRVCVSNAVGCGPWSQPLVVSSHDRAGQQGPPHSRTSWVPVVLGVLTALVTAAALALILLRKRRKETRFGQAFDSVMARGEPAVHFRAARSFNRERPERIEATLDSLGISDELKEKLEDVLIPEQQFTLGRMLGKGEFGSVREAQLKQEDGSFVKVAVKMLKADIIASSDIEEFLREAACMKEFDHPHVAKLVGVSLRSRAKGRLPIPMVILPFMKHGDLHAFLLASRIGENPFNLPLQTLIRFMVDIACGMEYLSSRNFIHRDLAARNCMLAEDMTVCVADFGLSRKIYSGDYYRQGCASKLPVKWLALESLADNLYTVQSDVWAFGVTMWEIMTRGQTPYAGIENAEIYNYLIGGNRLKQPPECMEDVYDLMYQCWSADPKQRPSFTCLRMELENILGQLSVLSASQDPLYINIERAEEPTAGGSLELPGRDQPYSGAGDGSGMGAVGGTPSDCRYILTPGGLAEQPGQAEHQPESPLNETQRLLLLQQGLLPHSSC
The test is described as follows: Selectivity interaction (KinomeScan (DiscoverX)) EUB0000595a TYRO3. As to conditions: at 10 µM.

The target of test [7] is T3, Mixed lineage kinase domain-like protein (Homo sapiens) (UniProt Q8NB16).
T3 sequence (whole entry): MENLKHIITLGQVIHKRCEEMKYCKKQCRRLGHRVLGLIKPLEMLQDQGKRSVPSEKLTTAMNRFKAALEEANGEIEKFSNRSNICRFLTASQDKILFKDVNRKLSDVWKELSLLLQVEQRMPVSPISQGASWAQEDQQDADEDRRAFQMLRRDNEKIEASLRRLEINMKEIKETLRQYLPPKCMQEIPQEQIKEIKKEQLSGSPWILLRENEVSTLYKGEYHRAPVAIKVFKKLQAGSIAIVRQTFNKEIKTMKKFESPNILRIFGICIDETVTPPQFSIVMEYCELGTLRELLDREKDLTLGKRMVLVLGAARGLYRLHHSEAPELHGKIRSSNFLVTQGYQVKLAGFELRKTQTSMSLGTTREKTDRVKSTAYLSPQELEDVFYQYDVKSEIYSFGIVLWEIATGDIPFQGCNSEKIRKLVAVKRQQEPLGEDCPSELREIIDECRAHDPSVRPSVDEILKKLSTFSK
The test is described as follows: Selectivity interaction (ActivX KiNativ screen (ex vivo kinase selectivity in human PBMCs)) EUB0001619a MLKL. As to conditions: PBMC, at 1 µM. It counts as cell-based.

Sequence of Tyrosine-protein kinase ABL2 (P42684 whole entry): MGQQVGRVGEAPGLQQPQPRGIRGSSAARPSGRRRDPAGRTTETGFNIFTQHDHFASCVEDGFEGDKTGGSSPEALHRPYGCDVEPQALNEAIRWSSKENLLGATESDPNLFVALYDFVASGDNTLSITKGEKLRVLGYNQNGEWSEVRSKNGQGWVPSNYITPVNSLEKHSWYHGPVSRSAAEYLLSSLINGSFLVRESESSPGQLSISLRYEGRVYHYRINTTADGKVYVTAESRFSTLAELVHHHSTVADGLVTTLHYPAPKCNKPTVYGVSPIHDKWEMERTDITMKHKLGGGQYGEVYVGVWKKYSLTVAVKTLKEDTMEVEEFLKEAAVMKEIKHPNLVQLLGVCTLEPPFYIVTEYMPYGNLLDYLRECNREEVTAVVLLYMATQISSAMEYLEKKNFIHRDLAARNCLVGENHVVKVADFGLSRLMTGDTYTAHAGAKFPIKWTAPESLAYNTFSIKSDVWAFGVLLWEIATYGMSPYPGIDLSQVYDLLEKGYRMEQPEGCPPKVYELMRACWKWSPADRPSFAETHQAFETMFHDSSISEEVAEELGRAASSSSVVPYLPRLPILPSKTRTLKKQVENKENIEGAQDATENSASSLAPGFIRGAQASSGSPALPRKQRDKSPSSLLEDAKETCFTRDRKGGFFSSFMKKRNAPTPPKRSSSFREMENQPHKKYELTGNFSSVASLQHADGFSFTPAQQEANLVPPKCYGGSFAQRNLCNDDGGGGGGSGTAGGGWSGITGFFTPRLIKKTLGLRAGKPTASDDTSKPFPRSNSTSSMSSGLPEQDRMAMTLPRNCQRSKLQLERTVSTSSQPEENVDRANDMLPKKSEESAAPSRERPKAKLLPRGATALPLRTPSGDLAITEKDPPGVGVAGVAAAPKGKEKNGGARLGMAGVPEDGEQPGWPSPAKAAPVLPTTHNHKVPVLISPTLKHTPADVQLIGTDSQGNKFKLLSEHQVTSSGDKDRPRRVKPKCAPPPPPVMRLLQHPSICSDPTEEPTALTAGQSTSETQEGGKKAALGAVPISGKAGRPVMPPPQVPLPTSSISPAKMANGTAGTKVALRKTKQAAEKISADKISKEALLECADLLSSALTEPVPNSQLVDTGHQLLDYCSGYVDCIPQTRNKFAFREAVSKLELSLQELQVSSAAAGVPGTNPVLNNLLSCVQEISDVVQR
Sequence of Wee1-like protein kinase 2 (Homo sapiens) (P0C1S8 whole entry, looked up): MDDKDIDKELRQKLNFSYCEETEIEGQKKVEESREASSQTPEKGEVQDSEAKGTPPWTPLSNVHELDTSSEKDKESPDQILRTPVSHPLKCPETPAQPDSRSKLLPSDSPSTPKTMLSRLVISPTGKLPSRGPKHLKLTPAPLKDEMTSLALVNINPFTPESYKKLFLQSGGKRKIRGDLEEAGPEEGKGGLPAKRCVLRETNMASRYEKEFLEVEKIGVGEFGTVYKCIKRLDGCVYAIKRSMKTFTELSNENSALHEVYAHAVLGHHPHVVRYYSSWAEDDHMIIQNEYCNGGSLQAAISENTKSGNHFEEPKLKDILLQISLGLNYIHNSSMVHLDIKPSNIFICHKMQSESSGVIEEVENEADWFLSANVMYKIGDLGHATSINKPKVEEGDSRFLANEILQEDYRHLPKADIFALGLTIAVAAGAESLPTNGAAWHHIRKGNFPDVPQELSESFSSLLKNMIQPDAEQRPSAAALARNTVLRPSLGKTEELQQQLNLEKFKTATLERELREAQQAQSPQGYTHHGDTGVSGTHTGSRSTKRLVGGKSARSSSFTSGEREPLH
Sequence of Tyrosine-protein kinase JAK2 (O60674 whole entry): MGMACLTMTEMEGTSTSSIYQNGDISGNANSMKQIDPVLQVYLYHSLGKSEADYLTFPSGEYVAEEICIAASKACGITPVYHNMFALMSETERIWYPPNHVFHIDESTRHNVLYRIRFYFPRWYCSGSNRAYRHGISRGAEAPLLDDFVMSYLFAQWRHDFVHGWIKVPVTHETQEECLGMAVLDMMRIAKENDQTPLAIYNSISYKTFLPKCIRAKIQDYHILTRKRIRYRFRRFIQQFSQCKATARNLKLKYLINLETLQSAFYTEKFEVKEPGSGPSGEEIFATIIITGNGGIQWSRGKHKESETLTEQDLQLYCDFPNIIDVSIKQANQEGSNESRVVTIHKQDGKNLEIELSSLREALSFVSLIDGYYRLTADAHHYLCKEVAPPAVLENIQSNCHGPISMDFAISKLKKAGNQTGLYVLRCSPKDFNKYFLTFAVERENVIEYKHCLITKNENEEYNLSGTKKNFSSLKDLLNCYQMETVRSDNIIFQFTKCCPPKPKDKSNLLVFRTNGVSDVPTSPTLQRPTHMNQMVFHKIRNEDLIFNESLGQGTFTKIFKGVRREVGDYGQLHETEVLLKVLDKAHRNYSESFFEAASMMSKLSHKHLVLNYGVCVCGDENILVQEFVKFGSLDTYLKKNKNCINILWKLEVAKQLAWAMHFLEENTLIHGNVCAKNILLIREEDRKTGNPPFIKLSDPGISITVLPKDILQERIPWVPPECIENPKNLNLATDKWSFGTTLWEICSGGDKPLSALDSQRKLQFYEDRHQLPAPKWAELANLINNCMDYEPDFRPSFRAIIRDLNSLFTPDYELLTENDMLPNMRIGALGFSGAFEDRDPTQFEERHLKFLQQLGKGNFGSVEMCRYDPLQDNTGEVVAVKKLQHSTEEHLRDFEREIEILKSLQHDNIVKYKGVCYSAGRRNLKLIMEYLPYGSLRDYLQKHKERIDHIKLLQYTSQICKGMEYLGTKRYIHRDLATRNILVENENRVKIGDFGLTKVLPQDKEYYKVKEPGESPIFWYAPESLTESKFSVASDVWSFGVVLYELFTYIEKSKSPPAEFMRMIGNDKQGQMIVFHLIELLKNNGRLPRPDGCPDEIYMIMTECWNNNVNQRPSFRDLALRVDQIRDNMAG

As to `Nc1cnc(N2CCc3cc(S(=O)(=O)Nc4c(F)cc(Cl)cc4F)cc(N4CCCC4=O)c32)nc1` [TP-020n], the % of control in test [1] stood at 100%.

Regarding `CCC(=O)N1CCN(c2ccc(-n3c(=O)ccc4cnc5ccc(-c6cnc7ccccc7c6)cc5c43)cc2C(F)(F)F)CC1`, the % of control was 99% in test [2] and 100% in test [3].

As for `Cn1cc(-n2cnc3c(NCc4nc5cc(Cl)c(Cl)cc5[nH]4)nc(N4CCOCC4)nc32)cn1`, in test [4], the % of control is -0.676%.

For the compound `CNC(=O)Nc1ccc(-c2nc(N3CC4CCC(C3)O4)c3cnn(C4CCC5(CC4)OCCO5)c3n2)cc1`, the % of control in test [5] was 75%.

Turning to `COCC(=O)NC/C=C/c1ccc2ncnc(Nc3ccc(Oc4ccc(C)nc4)c(C)c3)c2c1` [CP-724714], in test [6], the % of control is 80%.

Take `N#Cc1cccc(-c2c[nH]c3ncnc(N4CCOCC4)c23)c1`: the % of inhibition in test [7] is 15%.

The record behind these values is ChEMBL document CHEMBL5465560, “Selectivity Literature for EUbOPEN Chemogenomic Library” (2024).
